Results on 13 molecules are retold here after patent US10246419B2, “Liver X receptor (LXR) modulators” (Ralexar Therapeutics, Inc., priority 2013, dated 2019).

Some results are limits rather than exact numbers.

Chain of human LXRβ (AA 153-461) LBD (P55055 153-460 limits assumed): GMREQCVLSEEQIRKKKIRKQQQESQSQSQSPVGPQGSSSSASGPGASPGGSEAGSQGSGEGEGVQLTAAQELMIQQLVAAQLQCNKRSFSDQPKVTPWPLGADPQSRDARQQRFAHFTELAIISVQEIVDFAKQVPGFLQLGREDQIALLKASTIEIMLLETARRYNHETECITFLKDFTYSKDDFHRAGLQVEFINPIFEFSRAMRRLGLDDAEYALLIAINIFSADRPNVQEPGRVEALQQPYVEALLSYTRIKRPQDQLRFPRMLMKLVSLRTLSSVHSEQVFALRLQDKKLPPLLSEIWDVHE

The assay deals with human LXRβ (AA 153-461) LBD (Homo sapiens (Human), UniProt P55055). Kind of assay: Gal4 LXRβ cotransfection assay (LXRβ Gal fusion assay). It is filed as cell-based. As to conditions: HEK 293 cells transiently transfected, Gal4-responsive luciferase reporter, compounds 0.01-10 μM. How it is done:
For transient transfection of HEK 293 cells, 6×10^3 cells are plated into 96-well dishes. Each well is transfected with 25 ng 5×UAS-luciferase reporter (pG5luc) and 25 ng of pM human LXRβ (AA 153-461) LBD plasmid using Fugene 6 reagent (Roche; Indianapolis, Ind.). The chimeric protein is assessed for the ability to transactivate a Gal4-responsive luciferase reporter plasmid in a concentration-responsive manner to compounds (0.01-10 μM). Luciferase activity at each dose concentration is measured in triplicate using standard substrate reagents (BD Biosciences; San Diego, Calif.).
Regarding `CC(C)Cn1nc(C(=O)NCC(F)(F)F)cc1-c1ccc(-c2cccc(S(C)(=O)=O)c2)cc1` [Compound 6, 1-Isobutyl-5-(3′-(methylsulfonyl)-[1,1′-biphenyl]-4-yl)-N-(2,2,2-trifluoroethyl)-1H-pyrazole-3-carboxamide], the EC50 is under 1000 nM. The value for `CC(C)Cc1nc(C(C)(C)O)cn1-c1ccc(-c2cccc(S(C)(=O)=O)c2)cc1` [Compound 8, 2-(2-isobutyl-1-(3′-(methylsulfonyl)-[1,1′-biphenyl]-4-yl)-1H-imidazol-4-yl)propan-2-ol] was 1000 to 10000 nM. For the molecule `CC(C)Cn1nc(C(F)(F)F)cc1-c1ccc(-c2cccc(S(C)(=O)=O)c2)cc1` [Compound 4, 1-isobutyl-5-(3′-(methylsulfonyl)biphenyl-4-yl)-3-(trifluoromethyl)-1H-pyrazole], the EC50 was under 1000 nM. Molecule `CC(C)Cn1nc(C(C)C)cc1-c1ccc(-c2cccc(S(C)(=O)=O)c2)cc1` [Compound 12, 1-isobutyl-3-isopropyl-5-(3′-(methylsulfonyl)-[1,1′-biphenyl]-4-yl)-1H-pyrazole] returned an EC50 of 1000 to 10000 nM. As for `CC(C)Cn1nc(C(F)(F)F)cc1-c1ccc(-c2ccc(CO)c(S(C)(=O)=O)c2)cc1` [Compound 5, (4′-(1-isobutyl-3-(trifluoromethyl)-1H-pyrazol-5-yl)-3-(methylsulfonyl)biphenyl-4-yl)methanol], the EC50 is under 1000 nM.

`CC(C)Cn1nc(C(C)(C)O)cc1-c1ccc(-c2ccc(CO)c(S(C)(=O)=O)c2)cc1` [Compound 10, 2-(5-(4′-(Hydroxymethyl)-3′-(methylsulfonyl)-[1,1′-biphenyl]-4-yl)-1-isobutyl-1H-pyrazol-3-yl)propan-2-ol] yielded an EC50 of 1000 to 10000 nM. The figure for `CCC(C)n1nc(C(F)(F)F)cc1-c1ccc(-c2cccc(S(C)(=O)=O)c2)cc1` (stereo not shown) [Compound 19, 1-(sec-butyl)-5-(3′-(methylsulfonyl)-[1,1′-biphenyl]-4-yl)-3-(trifluoromethyl)-1H-pyrazole] is over 10000 nM; for `CC(C)Cn1nc(C(C)(C)O)cc1-c1ccc(-c2cccc(S(C)(=O)=O)c2)cc1` [Compound 11, 2-(1-isobutyl-5-(3′-(methylsulfonyl)-[1,1′-biphenyl]-4-yl)-1H-pyrazol-3-yl)propan-2-ol] it is 1000 to 10000 nM; for `CS(=O)(=O)c1cccc(-c2ccc(-c3cc(C(F)(F)F)nn3CC3CCCCC3)cc2)c1` [Compound 21, 1-(cyclohexylmethyl)-5-(3′-(methylsulfonyl)-[1,1′-biphenyl]-4-yl)-3-(trifluoromethyl)-1H-pyrazole] it is under 1000 nM.

`CS(=O)(=O)c1cccc(-c2ccc(-c3cc(C(F)(F)F)nn3CC3CC3)cc2)c1` [Compound 18, 1-(cyclopropylmethyl)-5-(3′-(methylsulfonyl)-[1,1′-biphenyl]-4-yl)-3-(trifluoromethyl)-1H-pyrazole] yielded an EC50 of under 1000 nM. Consider `C=C(C)c1cc(-c2ccc(-c3cccc(S(C)(=O)=O)c3)cc2)n(CC(C)C)n1` [Compound 9, 1-isobutyl-5-(3′-(methylsulfonyl)-[1,1′-biphenyl]-4-yl)-3-(prop-1-en-2-yl)-1H-pyrazole], for which the EC50 is 1000 to 10000 nM. In turn, `CC(C)Cn1nc(C(=O)NCC(F)(F)F)cc1-c1ccc(-c2ccc(CO)c(S(C)(=O)=O)c2)cc1` [Compound 7, 5-(4′-(Hydroxymethyl)-3′-(methylsulfonyl)-[1,1′-biphenyl]-4-yl)-1-isobutyl-N-(2,2,2-trifluoroethyl)-1H-pyrazole-3-carboxamide] gave an EC50 of under 1000 nM. The figure for `CS(=O)(=O)c1cccc(-c2ccc(-c3cc(C(F)(F)F)nn3C3CCCCC3)cc2)c1` [Compound 20, 1-cyclohexyl-5-(3′-(methylsulfonyl)-[1,1′-biphenyl]-4-yl)-3-(trifluoromethyl)-1H-pyrazole] is over 10000 nM.
